Patent publication US20090221829A1 (priority 2005, published 2009)

Tested on: Candida albicans(KCTC 1940), Aspergillus niger (ATCC 9642) and Saccharomyces cerevisiae
Assay: Relative antifungal activity by agar dilution method (vs Miconazole);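 note: scores 5 to 7 mean a lower fungicidal concentration than Miconazole so higher is more potent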
Type: cell-based
Details: agar dilution method; fungicidal concentration relative to control drug Miconazole (=4)
Text: Novel compounds represented by the above chemical formula (I), and the relative activities in accordance with the agar dilution method in Sabouraud dextrose agar media, Czapek agar media and Yeast Extract-Peptone-Dextrose agar media for Candida albicans(KCTC 1940), Aspergillus niger (ATCC 9642) and Saccharomyces cerevisiae are described respectively in following Table 1.

| SMILES | Relative Activity |
| --- | --- |
| COc1cc2c(cc1OC)CC[N+](Cc1ccccc1F)=C2.[Cl-] [Compound No. 1, 2-(2-fluorophenyl)methyl-3,4-dihydro-6,7-dimethoxy-isoquinolinium chloride] | 6 |
| COc1cc2c(cc1OC)C(C)=[N+](Cc1ccccc1F)CC2.[Cl-] [Compound No. 2, 1-methyl-2-(2-fluorophenyl)methyl-3,4-dihydro-6,7-dimethoxy-isoquinolinium chloride] | 6 |
| COc1cc2c(cc1OC)C(CCl)=[N+](Cc1ccccc1F)CC2.[Cl-] [Compound No. 3, 1-chloromethyl-2-(2-fluorophenyl)methyl-3,4-dihydro-6,7-dimethoxy-isoquinolinium chloride] | 6 |
| CCC1=[N+](Cc2ccccc2F)CCc2cc(OC)c(OC)cc21.[Cl-] [Compound No. 4, 1-ethyl-2-(2-fluorophenyl)methyl-3,4-dihydro-6,7-dimethoxy-isoquinolinium chloride] | 6 |
| CCCC1=[N+](Cc2ccccc2F)CCc2cc(OC)c(OC)cc21.[Cl-] [Compound No. 5, 1-propyl-2-(2-fluorophenyl)methyl-3,4-dihydro-6,7-dimethoxyisoquinolinium chloride] | 5 |
| COc1cc2c(cc1OC)C(C(C)C)=[N+](Cc1ccccc1F)CC2.[Cl-] [Compound No. 6, 1-i-propyl-2-(2-fluorophenyl)methyl-3,4-dihydro-6,7-dimethoxyisoquinolinium chloride] | 5 |
| COc1cc2c(cc1OC)C(CCCCl)=[N+](Cc1ccccc1F)CC2.[Cl-] [Compound No. 7, 1-(3-chloropropyl)-2-(2-fluorophenyl)methyl-3,4-dihydro-6,7-dimethoxyisoquinolinium chloride] | 5 |
| COc1cc2c(cc1OC)C(CC(C)C)=[N+](Cc1ccccc1F)CC2.[Cl-] [Compound No. 8, 1-(2-methyl)propyl-2-(2-fluorophenyl)methyl-3,4-dihydro-6,7-dimethoxyisoquinolinium chloride] | 5 |
| CCCCCC1=[N+](Cc2ccccc2F)CCc2cc(OC)c(OC)cc21.[Cl-] [Compound No. 9, 1-n-pentyl-2-(2-fluorophenyl)methyl-3,4-dihydro-6,7-dimethoxyisoquinolinium chloride] | 4 |
| CCCCCCC1=[N+](Cc2ccccc2F)CCc2cc(OC)c(OC)cc21.[Cl-] [Compound No. 10, 1-n-hexyl-2-(2-fluorophenyl)methyl-3,4-dihydro-6,7-dimethoxyisoquinolinium chloride] | 4 |
| CCCCCCCCCCCCCCCC1=[N+](Cc2ccccc2F)CCc2cc(OC)c(OC)cc21.[Cl-] [Compound No. 13, 1-n-pentadecyl-2-(2-fluorophenyl)methyl-3,4-dihydro-6,7-dimethoxyisoquinolinium chloride] | 2 |
| COc1cc2c(cc1OC)C(c1ccccc1F)=[N+](Cc1ccccc1F)CC2.[Cl-] [Compound No. 14, 1-(2-fluorophenyl)-2-(2-fluorophenyl)methyl-3,4-dihydro-6,7-dimethoxyisoquinolinium chloride] | 6 |
| COc1cc2c(cc1OC)C(c1cccc(F)c1F)=[N+](Cc1ccccc1F)CC2.[Cl-] [Compound No. 15, 1-(2,3-difluorophenyl)-2-(2-fluorophenyl)methyl-3,4-dihydro-6,7-dimethoxyisoquinolinium chloride] | 6 |
| COc1cc2c(cc1OC)C(c1ccc(F)cc1F)=[N+](Cc1ccccc1F)CC2.[Cl-] [Compound No. 16, 1-(2,4-difluorophenyl)-2-(2-fluorophenyl)methyl-3,4-dihydro-6,7-dimethoxyisoquinolinium chloride] | 6 |
| COc1cc2c(cc1OC)C(c1ccc(F)c(F)c1)=[N+](Cc1ccccc1F)CC2.[Cl-] [Compound No. 17, 1-(3,4-difluorophenyl)-2-(2-fluorophenyl)methyl-3,4-dihydro-6,7-dimethoxyisoquinolinium chloride] | 6 |
| COc1cc2c(cc1OC)C(c1cccc(Cl)c1)=[N+](Cc1ccccc1F)CC2.[Cl-] [Compound No. 19, 1-(3-chlorophenyl)-2-(2-fluorophenyl)methyl-3,4-dihydro-6,7-dimethoxyisoquinolinium chloride] | 6 |
| COc1cc2c(cc1OC)C(c1ccc(Cl)cc1)=[N+](Cc1ccccc1F)CC2.[Cl-] [Compound No. 20, 1-(4-chlorophenyl)-2-(2-fluorophenyl)methyl-3,4-dihydro-6,7-dimethoxyisoquinolinium chloride] | 6 |
| CCCCc1ccc(C2=[N+](Cc3ccccc3F)CCc3cc(OC)c(OC)cc32)cc1.[Cl-] [Compound No. 21, 1-(4-n-butylphenyl)-2-(2-fluorophenyl)methyl-3,4-dihydro-6,7-dimethoxyisoquinolinium chloride] | 6 |

| SMILES | Relative Activity |
| --- | --- |
| COc1cc2c(cc1OC)C(c1cccc(C(F)(F)F)c1)=[N+](Cc1ccccc1F)CC2.[Cl-] [Compound No. 23, 1-(3-trifluoromethylphenyl)-2-(2-fluorophenyl) methyl-3,4-dihydro-6,7-dimethoxyisoquinolinium chloride] | 6 |
| COc1cc2c(cc1OC)C(Cc1ccccc1F)=[N+](Cc1ccccc1F)CC2.[Cl-] [Compound No. 24, 1-(2-fluorophenyl)methyl-2-(2-fluorophenyl)methyl-3,4-dihydro-6,7-dimethoxyisoquinolinium chloride] | 6 |
| COc1cc2c(cc1OC)C(C)=[N+](Cc1ccc(C(F)(F)F)cc1)CC2.[Cl-] [Compound No. 26, 1-methyl-2-(4-trifluoromethylphenyl)methyl-3,4-dihydro-6,7-dimethoxyisoquinolinium chloride] | 6 |
| CCCCCC1=[N+](Cc2ccc(C(F)(F)F)cc2)CCc2cc(OC)c(OC)cc21.[Cl-] [Compound No. 27, 1-n-pentyl-2-(4-trifluoromethylphenyl)methyl-3,4-dihydro-6,7-dimethoxyisoquinolinium chloride] | 4 |
| CCCCCCCC1=[N+](Cc2ccc(C(F)(F)F)cc2)CCc2cc(OC)c(OC)cc21.[Cl-] [Compound No. 28, 1-n-heptyl-2-(4-trifluoromethylphenyl)methyl-3,4-dihydro-6,7-dimethoxyisoquinolinium chloride] | 4 |
| CCCCCCCCCCCC1=[N+](Cc2ccc(C(F)(F)F)cc2)CCc2cc(OC)c(OC)cc21.[Cl-] [Compound No. 29, 1-n-undecyl-2-(4-trifluoromethylphenyl)methyl-3,4-dihydro-6,7-dimethoxyisoquinolinium chloride] | 1 |
| CCCCCCCCCCCCCCCC1=[N+](Cc2ccc(C(F)(F)F)cc2)CCc2cc(OC)c(OC)cc21.[Cl-] [Compound No. 30, 1-n-pentadecyl-2-(4-trifluoromethylphenyl)methyl-3,4-dihydro-6,7-dimethoxyisoquinolinium chloride] | 1 |
| COc1cc2c(cc1OC)C(c1ccccc1F)=[N+](Cc1ccc(C(F)(F)F)cc1)CC2.[Cl-] [Compound No. 31, 1-(2-fluorophenyl)-2-(4-trifluoromethylphenyl)methyl-3,4-dihydro-6,7-dimethoxyisoquinolinium chloride] | 6 |
| COc1cc2c(cc1OC)C(c1ccc(C(C)(C)C)cc1)=[N+](Cc1ccc(C(F)(F)F)cc1)CC2.[Cl-] [Compound No. 32, 1-(4-t-butylphenyl)-2-(4-trifluoromethylphenyl)methyl-3,4-dihydro-6,7-dimethoxyisoquinolinium chloride] | 6 |
| COc1ccc(C[N+]2=C(C)c3cc(OC)c(OC)cc3CC2)cc1.[Cl-] [Compound No. 33, 1-methyl-2-(4-methoxyphenyl)methyl-3,4-dihydro-6,7-dimethoxyisoquinolinium chloride] | 6 |
| CCCCCC1=[N+](Cc2ccc(OC)cc2)CCc2cc(OC)c(OC)cc21.[Cl-] [Compound No. 34, 1-n-pentyl-2-(4-methoxyphenyl)methyl-3,4-dihydro-6,7-dimethoxyisoquinolinium chloride] | 4 |
| CCCCCCC1=[N+](Cc2ccc(OC)cc2)CCc2cc(OC)c(OC)cc21.[Cl-] [Compound No. 35, 1-n-hexyl-2-(4-methoxyphenyl)methyl-3,4-dihydro-6,7-dimethoxyisoquinolinium chloride] | 4 |
| CCCCCCCC1=[N+](Cc2ccc(OC)cc2)CCc2cc(OC)c(OC)cc21.[Cl-] [Compound No. 36, 1-n-heptyl-2-(4-methoxyphenyl)methyl-3,4-dihydro-6,7-dimethoxyisoquinolinium chloride] | 3 |
| CCCCCCCCCCCC1=[N+](Cc2ccc(OC)cc2)CCc2cc(OC)c(OC)cc21.[Cl-] [Compound No. 37, 1-n-undecyl-2-(4-methoxyphenyl)methyl-3,4-dihydro-6,7-dimethoxyisoquinolinium chloride] | 2 |
| CCCCCCCCCCCCCCCC1=[N+](Cc2ccc(F)cc2)CCc2cc(OC)c(OC)cc21.[Cl-] [Compound No. 38, 1-n-pentadecyl-2-(4-fluorophenyl)methyl-3,4-dihydro-6,7-dimethoxyisoquinolinium chloride] | 1 |
| COc1cc2c(cc1OC)C(C(C)C)=[N+](Cc1ccc(F)c(F)c1)CC2.[Cl-] [Compound No. 40, 1-i-propyl-2-(3,4-difluorophenyl)methyl-3,4-dihydro-6,7-dimethoxyisoquinolinium chloride] | 6 |
| CCCCCC1=[N+](Cc2ccc(F)c(F)c2)CCc2cc(OC)c(OC)cc21.[Cl-] [Compound No. 41, 1-n-pentyl-2-(3,4-difluorophenyl)methyl-3,4-dihydro-6,7-dimethoxyisoquinolinium chloride] | 6 |
| CCCCCCC1=[N+](Cc2ccc(F)c(F)c2)CCc2cc(OC)c(OC)cc21.[Cl-] [Compound No. 42, 1-n-hexyl-2-(3,4-difluorophenyl)methyl-3,4-dihydro-6,7-dimethoxyisoquinolinium chloride] | 4 |
